This is an account of results in patent publication US20040029773A1, “Use of 1-ebio in the treatment of bipolar disorders” (priority 2000, published 2004).

Each structure is given as a SMILES string.

The test system of test [1] is amphetamine/chlordiazepoxide-induced hyperactivity in mice. The test can be described thus: amphetamine/chlordiazepoxide-induced hyperactivity, rodent model of mania (locomotor activity). As to conditions: 150 mg/kg i.p., data not shown.
Test [2] has the same test system. Particulars: previous validation studies (literature); cited from earlier work.

Take `CCCC(CCC)C(=O)[O-].[Na+]` [sodium valproate]: in test [1], the amphetamine/chlordiazepoxide-induced hyperactivity entry is reported as “can be prevented”. Also, in test [2], the “behaviour induced by amphetamine plus chlordiazepoxide” value is given as “can be ameliorated”.
